Data: patent US20240002846A1, “COMPOSITIONS AND METHODS FOR THE DIAGNOSIS AND TREATMENT OF ITCH” (Duke University, priority 2020, published 2024)

How the values were obtained:
mouse keratinocytes = assay: Ca2+ imaging in cultured mouse keratinocytes; format: cell-based; conditions: inhibitor 10 μM
Experimental: Basal keratinocytes were separated from the cornified sheets by filtration through a […] cell strainer. Keratinocytes were plated on collagen I-coated dishes or glass coverslips and grown in EME media (Gibco, Gaithersburg, MD) containing 8% chelex (Bio-rad, Hercules, CA)-treated FBS with the final Ca^2+ adjusted to 0.05 mM, bovine pituitary extract (50 μg/mL), epidermal growth factor (5 ng/mL), and lx antibiotics/antimycotics (Gibco, Gaithersburg, MD) in a humidified incubator with 5% CO2 at 37° C. for 5-7 days until use. To knockdown Trpv4 in isolated keratinocytes from newborn keratinocyte-Trpv4 cKO mice, cells were treated with 4-OH tamoxifen at 500 nM for 72 h.
(§1) In vitro and ex vivo Ca^2+ imaging. […] Ca^2+ imaging of cultured cells in response to chemicals was conducted after loading with 5 μM Fura2-AM (Invitrogen, Waltham, MA) for 45 min after a ratiometric Ca^2+-imaging protocol with 340/380-nm blue light for dual excitation. Ratios of emissions were acquired at 0.5 Hz. ΔR/R0 was determined as the fraction of the increase of a given ratio over baseline ratio divided by baseline ratio. […] Control cells received vehicles.

human keratinocytes = assay: Ca2+ imaging in cultured human keratinocytes; format: cell-based; conditions: inhibitor 10 μM
Experimental: In brief, surgically discarded foreskin samples, obtained from Duke Children's Hospital in accordance to institutionally approved IRB protocol, were incubated with Dispase (Gibco, Gaithersburg, MD, 4 U/mL) for 12-16 h at 4° C. followed by 0.05% trypsin (Gibco, Gaithersburg, MD) for 10-20 min at 37° C. Cells were maintained in keratinocyte serum-free media (Invitrogen, Waltham, MA) with 5% CO2 at 37° C. and used at passage 2-3.
as §1

[1] = system: human TRPV4 mutations (R746C, R746G, R746D, K754G, R757G, R774G, and W776G); assay: Ca2+ imaging in HEK cells transfected with human TRPV4 mutations; format: cell-based
Experimental: Cell culture and transfection. HEK293 cells (ATCC® CRL-1573) were cultured on poly-D-lysine coated coverslips in 24-well plate containing DMEM media with high-Glucose (Gibco, Gaithersburg, MD) supplemented with 10% fetal bovine serum (FBS, HyClone Laboratories, Logan, UT) and 100 U/mL of penicillin/streptomycin (Gibco, Gaithersburg, MD). Cell cultures were maintained with 5% of CO2 in a humidified incubator at 37° C. HEK cells were transfected with rat or human wild type or mutant TRPV4 channels with EGFP or YFP coupled to their C-termini (1.5 μg of plasmid for excised patch clamp and Ca^2+ imaging and 200 ng for single-channel experiments). The jetPEI™ Polyplus transfection reagent (Polyplus Transfection, New York, NY) for electrophysiology or Lipofectamine™ 2000 Reagent (Invitrogen, Waltham, MA) for Ca^2+ imaging were used for transfections per manufacturer's instructions as previously described (Chen et al. Pain 2014, 155, 2662-2672; Morales-Lazaro et al. Nat. Commun. 2016, 7, 13092). […]
In vitro and ex vivo Ca^2+ imaging. […] Ratios of emissions were acquired at 0.5 Hz. ΔR/R0 was determined as the fraction of the increase of a given ratio over baseline ratio divided by baseline ratio. […]

hTRPV4 = target: T1, hTRPV4 (Homo sapiens, UniProt Q9HBA0); assay: Inside-out patch-clamp, hTRPV4; format: biochemical; conditions: 5 μM LPC 18:1; WT-hTRPV4
T1 construct: expressed in transfected cells; host or cells: HEK293 (ATCC CRL-1573)
Experimental: Cell culture and transfection. HEK293 cells (ATCC® CRL-1573) were cultured on poly-D-lysine coated coverslips in 24-well plate containing DMEM media with high-Glucose (Gibco, Gaithersburg, MD) supplemented with 10% fetal bovine serum (FBS, HyClone Laboratories, Logan, UT) and 100 U/mL of penicillin/streptomycin (Gibco, Gaithersburg, MD). Cell cultures were maintained with 5% of CO2 in a humidified incubator at 37° C. HEK cells were transfected with rat or human wild type or mutant TRPV4 channels with EGFP or YFP coupled to their C-termini (1.5 μg of plasmid for excised patch clamp and Ca^2+ imaging and 200 ng for single-channel experiments). […]
Electrophysiology. Currents were recorded using the inside-out configuration of the patch-clamp technique (Hamill et al. Pflugers Arch. 1981, 391, 85-100). […] Mean current values in response to GSK1016790A or LPC 18:1 were measured after channel activation had reached the steady-state (˜3 min). […] Currents were low-pass filtered at 2 kHz and sampled at 10 kHz with an EPC 10 amplifier (HEKA Elektronik) and were plotted and analyzed with Igor Pro (Wavemetrics Inc.).

T1 sequence (Q9HBA0 whole entry): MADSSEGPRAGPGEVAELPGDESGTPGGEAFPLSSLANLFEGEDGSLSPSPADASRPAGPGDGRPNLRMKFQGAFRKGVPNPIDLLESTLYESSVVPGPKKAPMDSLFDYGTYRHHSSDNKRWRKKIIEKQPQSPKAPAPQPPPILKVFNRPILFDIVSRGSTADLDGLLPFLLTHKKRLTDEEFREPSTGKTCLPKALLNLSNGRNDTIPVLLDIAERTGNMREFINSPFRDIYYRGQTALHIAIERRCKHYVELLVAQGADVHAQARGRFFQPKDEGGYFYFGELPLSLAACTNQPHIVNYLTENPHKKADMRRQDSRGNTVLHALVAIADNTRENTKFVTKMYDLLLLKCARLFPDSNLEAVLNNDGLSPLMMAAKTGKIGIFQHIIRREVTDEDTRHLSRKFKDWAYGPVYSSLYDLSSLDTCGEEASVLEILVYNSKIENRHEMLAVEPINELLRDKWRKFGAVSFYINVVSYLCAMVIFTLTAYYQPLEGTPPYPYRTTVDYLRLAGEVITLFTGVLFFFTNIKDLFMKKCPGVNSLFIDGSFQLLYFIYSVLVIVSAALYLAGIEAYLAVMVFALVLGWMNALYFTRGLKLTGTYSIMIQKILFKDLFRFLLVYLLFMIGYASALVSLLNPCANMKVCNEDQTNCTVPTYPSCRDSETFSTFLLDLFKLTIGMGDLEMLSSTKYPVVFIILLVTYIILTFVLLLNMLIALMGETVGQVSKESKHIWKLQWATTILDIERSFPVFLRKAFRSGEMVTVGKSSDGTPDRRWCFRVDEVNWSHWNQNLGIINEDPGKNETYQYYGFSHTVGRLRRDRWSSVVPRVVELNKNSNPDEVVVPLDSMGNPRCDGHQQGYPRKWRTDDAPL

Row | Compound | effect on LPA 18:1 (10 μM) induced Ca2+ signal (mouse keratinocytes) | effect on LPC (10 μM) induced Ca2+ signal (mouse keratinocytes) | effect on LPA 18:1 (10 μM) induced Ca2+ signal (human keratinocytes) | effect on LPC (10 μM) induced Ca2+ signal (human keratinocytes) | Ca2+ signal induced by 10 μM LPC 18:1 in TRPV4 mutants vs hTRPV4 [1] | average activation of currents, normalized to 1 μM GSK101 (hTRPV4) [%]
1 | Cc1c(C(=O)Nc2cccc(C(F)(F)F)c2)cc(-c2ccccc2)n1CCCN1CCOCC1 [HC067047] | remained unchanged | significantly reduced | remained unchanged | significantly reduced | – | –
2 | LPC 18:1 | – | – | – | – | drastically reduced | 48±6
